Assay results taken from patent US20240279611A1, “EXOSOME PRODUCTION PROMOTING AGENT AND EXOSOME PRODUCTION PROMOTING METHOD” (FULLSTEM CO., LTD., priority 2021, published 2024).

System: adipose-derived mesenchymal stem cells (ADSC)
Assay: Amount of exosomes produced from ADSC, measured with Exo Counter (CD81 sandwich immunoassay) after excluding single factors
Format: cell-based
Details: 48-hour culture in DMEM F12 on nonwoven fabric; one factor excluded from the eight factors of Table 1, compared with all eight added; CD81 on exosome surface detected in culture supernatant; FIG. 1
Experimental: 4×10^4 adipose-derived mesenchymal stem cells (ADSC) were seeded in each well. A nonwoven fabric (3D, BioNOCII, CESCO BIOENGINEERING CO., LTD. in non-adhesive 24 well plate (PrimeSurface (registered trademark) Sumitomo Bakelite Co., Ltd.) was used for cell culture. A basal medium was 1.5 ml of 10% FBS/DMEM F12 (Sigma-Aldrich). The number of days of culture was 6. Starting from Day 2, 1.5 ml of medium was exchanged daily, and the amount of sugar consumed in the used culture medium was measured.
Next, in the cell culture for 48 hours on Day 7 and Day 8, DMEM F12 was used as a medium so as to collect exosomes. In this 48-hour culture, 10% ExoFBS (Funakoshi Co., Ltd.) was added in Test #1. ExoFBS is a product from which bovine-derived exosomes are removed; therefore, influence on an exosome research is reduced.
In Test #3 of the 48-hour culture, only factor A was excluded from the eight factors shown in Table 1, and the other factors were added. In Test #4 of the 48-hour culture, only factor B was excluded from the eight factors shown in Table 1, and the other factors were added. In Test #5 of the 48-hour culture, only factor C was excluded from the eight factors shown in Table 1, and the other factors were added. In Test #6 of the 48-hour culture, only factor D was excluded from the eight factors shown in Table 1, and the other factors were added. In Test #7 of the 48-hour culture, only factor E was excluded from the eight factors shown in Table 1, and the other factors were added. In Test #8 of the 48-hour culture, only factor F was excluded from the eight factors shown in Table 1, and the other factors were added. In Test #9 of the 48-hour culture, only factor G was excluded from the eight factors shown in Table 1, and the other factors were added. In Test #10 of the 48-hour culture, only factor H was excluded from the eight factors shown in Table 1, and the other factors were added.
The amount of exosomes produced from ADSC was measured with Exo Counter (Kenwood), using 50 μl each from 1.5 ml of the collected culture supernatant. Exo Counter detects exosomes by sandwich immunoassay using disc and nanobeads antibodies in a surface antigen-specific manner. CD81 on the exosome surface was detected to quantify the exosome amount.

Row | Molecule | effect of the factor on the amount of exosomes produced
1 | OC[C@H]1O[C@H](O[C@H]2O[C@H](CO)[C@@H](O)[C@H](O)[C@H]2O)[C@H](O)[C@@H](O)[C@@H]1O [trehalose, Trehalose] | promoted the production of exosomes
2 | EGF [6045 Da protein consisting of 53 amino acid residues and three intramolecular disulfide bonds; ligand of epidermal growth factor receptor] | promotes the production of exosomes
3 | IL-1β | promoted the production of exosomes
4 | TNFα | inhibited the production of exosomes
